Molecular target: T1, full length human Androgen Receptor (AR) (Homo sapiens, UniProt P10275)
T1 construct: transiently transfected in T225 cm^2 flasks with a full length human Androgen Receptor (AR) cDNA; expressed in transfected cells; host or cells: CV-1 cells (ATCC CCL-70), transiently transfected with AR cDNA in pcDNA3 and ARE-luciferase in pGL3
T1 sequence (P10275 1-920): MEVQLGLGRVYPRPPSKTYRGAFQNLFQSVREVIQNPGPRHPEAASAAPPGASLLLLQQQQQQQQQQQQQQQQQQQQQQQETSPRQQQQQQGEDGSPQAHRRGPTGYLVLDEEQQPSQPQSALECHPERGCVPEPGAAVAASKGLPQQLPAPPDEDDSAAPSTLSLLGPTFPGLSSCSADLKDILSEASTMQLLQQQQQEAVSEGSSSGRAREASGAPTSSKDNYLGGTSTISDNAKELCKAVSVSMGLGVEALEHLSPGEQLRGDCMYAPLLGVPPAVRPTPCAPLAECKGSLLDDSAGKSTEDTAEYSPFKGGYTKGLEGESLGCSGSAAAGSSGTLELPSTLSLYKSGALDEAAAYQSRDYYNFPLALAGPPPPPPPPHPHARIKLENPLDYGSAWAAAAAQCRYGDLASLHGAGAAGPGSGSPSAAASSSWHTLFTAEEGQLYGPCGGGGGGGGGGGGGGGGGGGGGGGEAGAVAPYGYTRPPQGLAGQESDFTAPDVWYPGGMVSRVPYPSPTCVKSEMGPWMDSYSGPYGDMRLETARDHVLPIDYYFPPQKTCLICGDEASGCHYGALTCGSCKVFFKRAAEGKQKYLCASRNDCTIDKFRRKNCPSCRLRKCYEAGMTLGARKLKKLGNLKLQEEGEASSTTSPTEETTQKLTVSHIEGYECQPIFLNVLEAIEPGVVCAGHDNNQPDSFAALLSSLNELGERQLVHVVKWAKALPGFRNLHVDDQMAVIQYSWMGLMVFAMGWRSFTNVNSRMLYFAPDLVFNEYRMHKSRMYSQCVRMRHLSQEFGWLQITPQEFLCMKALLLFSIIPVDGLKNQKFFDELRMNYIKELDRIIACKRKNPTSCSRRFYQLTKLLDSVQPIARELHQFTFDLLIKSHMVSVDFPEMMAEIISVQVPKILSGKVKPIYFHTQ
Test: Androgen Receptor-Mediated Transcriptional Assay (ARE-luciferase reporter in transiently transfected CV-1 cells)
Type: cell-based
Conditions: not given
Description: Androgen Receptor-Mediated Transcriptional Assay Summary
CV-1 cells (American Tissue Culture Collection cat# CCL-70) were expanded in Growth Media and transiently transfected in T225 cm^2 flasks with a full length human Androgen Receptor (AR) cDNA in the pcDNA3 expression vector and a human Androgen Response Element (ARE)-luciferase cDNA in the pGL3 vector (both from Invitrogen). DNA (μg) and Lipofectamine (μl) at a ratio of 1:3 were incubated with the cells in a total volume of 55 mL Basal Media for 4 hours. Cells were harvested by trypsinization and frozen back (−150° C. cryomed) at a concentration of 4.3 million cells/mL.
On the day of the assay, frozen cells were thawed and re-suspended in Re-suspension Media and plated at 40,000 cells/well (in 100 μL volume) in 96 well white plates and were incubated for at least 4 h at 37° C., 5% CO2. After incubation, cells were treated with the compounds to be screened. 10 mM stocks of the compounds were serially diluted 1:10 in 100% DMSO followed by an additional 1:100 dilution in Assay Media. These dilution series were added to the cell plates resulting in a further 1:10 dilution and a final % DMSO of 0.1%. The vehicle control wells also contained this dilution of DMSO and the positive control wells contained […] (DHT) as an AR agonist at final concentration of 0.3 nM in 0.1% DMSO. Cells were incubated for 16-18 hours at 37° C. and 5% CO2. Then the culture media was removed from and the cells were lysed in 20 μL of cell lysis reagent for 5 minutes at room temperature. 50 μL of luciferase reagent was added to each well and luminescence, over 5 seconds, was measured.
EC50 (half maximal effective concentration) was calculated from concentration series plots which generated sigmoidal curves. Xlfit software was used to plot the best fit of the % effect vs concentration and to calculate the EC50.
Reagents and Materials used in the Androgen Receptor-Mediated Transcriptional Assay include the following: • Growth Media—DMEM/high glucose—10% FBS: 500 ml phenol red DMEM/high glucose (Gibco, Grand Island N.Y., cat #10569-010), 10% non heat-inactivated Fetal Bovine Serum (FBS) (Atlanta Biologicals, Norcross Ga., cat #S-12450), 1% Nonessential Amino Acids (Gibco, cat #11140-050), 1% Penicillin-Streptomycin (Gibco, cat #15140-122) • Basal Media—phenol red free DMEM/high glucose (Gibco, cat #31053-028)+1% Na Pyruvate (Gibco, cat #11360-070), 1% Nonessential Amino Acids (Gibco, cat #11140-050), 1% GlutaMAX-I (Gibco, cat #35050-061) • Re-suspension Media—basal media+1% Penicillin-Streptomycin (Gibco, cat #15140-122) • Assay Media—basal media+5% charcoal stripped FBS (HyClone, Logan Utah, Cat #SH30068)+1% Penicillin-Streptomycin (Gibco, cat #15140-122) • Cell Lysis Reagent—Promega, Cat #PAE1531 • Luciferase Reagent—Promega, Cat #PAE1483

Row | Compound | EC50
1 | C[C@H]([C@H](O)C(F)(F)F)N(C)c1ccc2c(C#N)nccc2c1 (single isomer, unassigned) [Compound 27] | 12.9 nM
2 | N#Cc1nccc2cc(N3C(=O)CC[C@H]3[C@H](O)C(F)(F)F)ccc12 (single isomer, unassigned) [Compound 33] | 231 nM
3 | N#Cc1nccc2cc(N3C(=O)CC[C@@H]3[C@H](O)C(F)(F)F)ccc12 (single isomer, unassigned) [Compound 32] | 84.3 nM
4 | CCN1C[C@@H](C)CN(c2ccc3c(C#N)nccc3c2)S1(=O)=O (single isomer, unassigned) [Compound 16] | 262 nM
5 | N#Cc1nccc2cc(N3CCC[C@H]3[C@H](O)C(F)(F)F)ccc12 (single isomer, unassigned) [Compound 36] | 120 nM
6 | C[C@@H]1CC[C@H]([C@@H](O)C(F)(F)F)N1c1ccc2c(C#N)nccc2c1 [Compound 30, 6-{(2R,5R)-2-methyl-5-[(1R)-2,2,2-trifluoro-1-hydroxyethyl]pyrrolidin-1-yl}isoquinoline-1-carbonitrile] | 0.1 nM
7 | C[C@H]1CNS(=O)(=O)N1c1ccc2c(C#N)nccc2c1 [Compound 1, 6-[(3S)-3-methyl-1,1-dioxido-1,2,5-thiadiazolidin-2-yl]isoquinoline-1-carbonitrile] | 15 nM
8 | CC1(C)CNS(=O)(=O)N(c2ccc3c(C#N)nccc3c2)C1 [Compound 13, 6-(4,4-dimethyl-1,1-dioxido-1,2,6-thiadiazinan-2-yl)isoquinoline-1-carbonitrile] | 0.7 nM
9 | C[C@@H](Nc1ccc2c(C#N)nccc2c1)[C@H](O)C(F)(F)F [Compound 23, 6-{[(2R,3S)-4,4,4-trifluoro-3-hydroxybutan-2-yl]amino}isoquinoline-1-carbonitrile] | 5.1 nM
10 | N#Cc1nccc2cc(N3CCC[C@H]3[C@@H](O)C(F)(F)F)ccc12 (single isomer, unassigned) [Compound 37] | 9.1 nM
11 | C[C@H]1CC[C@@H]([C@H](O)C(F)(F)F)N1c1ccc2c(C#N)nccc2c1 (single isomer, unassigned) [Compound 38] | 187 nM
12 | CC[C@H]1CNS(=O)(=O)N1c1ccc2c(C#N)nccc2c1 (single isomer, unassigned) [Compound 2] | 18 nM
13 | C[C@H]1CNS(=O)(=O)N1c1ccc2c(C#N)cccc2c1 (single isomer, unassigned) [Compound 9] | 4 nM

Same assay, conditions: CV-1 cells transfected with human AR and ARE-luciferase; 16-18 hours incubation; luminescence; read-out: EC50 Values for Compounds 1-22 from Androgen Receptor-Mediated Transcriptional Assay

Row | EC50 | Compound
14 | 22 nM | N#Cc1nccc2cc(N3[C@@H](c4ccc(Cl)cc4)CNS3(=O)=O)ccc12 (single isomer, unassigned) [Compound 7]
15 | 20 nM | Cc1ccc([C@H]2CNS(=O)(=O)N(c3ccc4c(C#N)nccc4c3)C2)cc1 (single isomer, unassigned) [Compound 18]
16 | 0.4 nM | C[C@@H]1CNS(=O)(=O)N(c2ccc3c(C#N)nccc3c2)C1 [Compound 10, 6-[(4R)-4-methyl-1,1-dioxido-1,2,6-thiadiazinan-2-yl]isoquinoline-1-carbonitrile]
17 | 177 nM | Cc1ccc([C@@H]2CNS(=O)(=O)N(c3ccc4c(C#N)nccc4c3)C2)cc1 (single isomer, unassigned) [Compound 19]
18 | 22 nM | N#Cc1nccc2cc(N3[C@H](CCc4ccccc4)CNS3(=O)=O)ccc12 (single isomer, unassigned) [Compound 4]
19 | 10 nM | N#Cc1nccc2cc(N3[C@H](c4cccc(C(F)(F)F)c4)CNS3(=O)=O)ccc12 (single isomer, unassigned) [Compound 6]

Row | Compound | EC50
20 | C[C@H]1CN(C)S(=O)(=O)N1c1ccc2c(C#N)nccc2c1 [Compound 5] | 5 nM
21 | 6-[(4S)-4-ethyl-1,1-dioxido-1,2,6-thiadiazinan-2-yl]isoquinoline-1-carbonitrile [Compound 21] | 8 nM

Same assay, conditions: CV-1 cells transfected with human AR and ARE-luciferase; 16-18 hours incubation; luminescence; read-out: EC50 Values for Compounds 23-39 from Androgen Receptor-Mediated Transcriptional Assay

Row | Compound | EC50
22 | 6-{(2R,5R)-2-[(1R)-1-hydroxyethyl]-5-methylpyrrolidin-1-yl}isoquinoline-1-carbonitrile [Compound 31] | 474 nM

From patent US9328104B2, “Selective androgen receptor modulators” (Pfizer Inc., priority 2012, dated 2016)
